Measured values: ChEMBL document CHEMBL1201862, “PubChem BioAssay data set” (2004)
Calls of active or inactive are those of the source.

Columns and labels:
[1] = HEK-293T viability loss after treatment – luminescence, T-cell screen hits, cytotoxicity control for TCR NF-kB inhibitor project, dose response (AID 489026); assay type: functional, cell-based;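 further: cells exposed to compound about 14 hours before the viability readout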
[2] = Luminescence Cell-Based Dose Retest to Confirm Inhibitors of Cancer Stem Cells. [Related pubchem assays (depositor defined):AID2717, AID2721]; assay type: functional; conditions: Homo sapiens
[3] = target: T1, Lysosomal acid glucosylceramidase (Homo sapiens, UniProt P04062); assay: Dose response cell-based high throughput screening assay to identify enhancers of beta-glucosidase activity. [Related pubchem assays: 784 ]; assay type: functional
T1 sequence (P04062 whole entry): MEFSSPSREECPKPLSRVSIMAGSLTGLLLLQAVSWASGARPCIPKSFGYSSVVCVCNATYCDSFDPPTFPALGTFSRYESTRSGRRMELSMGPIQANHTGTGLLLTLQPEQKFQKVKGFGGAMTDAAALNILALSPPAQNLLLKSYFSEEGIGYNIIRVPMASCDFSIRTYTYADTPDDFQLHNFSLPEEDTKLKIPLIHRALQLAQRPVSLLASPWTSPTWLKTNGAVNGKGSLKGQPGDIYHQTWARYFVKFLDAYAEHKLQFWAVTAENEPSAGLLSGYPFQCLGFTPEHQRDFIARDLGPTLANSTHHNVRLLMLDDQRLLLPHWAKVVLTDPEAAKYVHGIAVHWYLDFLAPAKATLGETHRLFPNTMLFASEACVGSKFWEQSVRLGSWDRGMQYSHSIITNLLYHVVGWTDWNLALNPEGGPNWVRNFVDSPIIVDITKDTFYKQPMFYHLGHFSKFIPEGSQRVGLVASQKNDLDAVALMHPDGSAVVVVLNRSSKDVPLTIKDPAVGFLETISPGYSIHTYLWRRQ

[4] = A cytotoxicity screen of small molecule inhibitors of the PhoP region in Salmonella typhi identified in the primary screen. [Related pubchem assays: 1850, 1864, 1985 ]; assay type: functional
[5] = target: Eukaryotic translation initiation factor 4E (Mus musculus, UniProt P63073); assay: blockers of eIF4G binding by eIF4E – biochemical, TR-FRET, dose response (AID 855); assay type: functional;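 further: potency for disrupting eIF4E binding to eIF4GI seen as loss of FRET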
Chain of Eukaryotic translation initiation factor 4E (P63073 whole entry): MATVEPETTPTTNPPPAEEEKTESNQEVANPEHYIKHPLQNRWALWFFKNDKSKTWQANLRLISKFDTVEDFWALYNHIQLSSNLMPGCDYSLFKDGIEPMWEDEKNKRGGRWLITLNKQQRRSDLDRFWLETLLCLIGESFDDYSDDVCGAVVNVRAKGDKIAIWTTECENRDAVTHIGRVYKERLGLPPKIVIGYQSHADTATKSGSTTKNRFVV

[6] = target: T2, Replicative DNA helicase DnaB (Mycobacterium tuberculosis, UniProt P9WMR3); assay: DnaB intein splicing inhibitors, dose response, biochemical, cell-free fluorescence (AID 449749); assay type: functional
T2 sequence (P9WMR3 whole entry): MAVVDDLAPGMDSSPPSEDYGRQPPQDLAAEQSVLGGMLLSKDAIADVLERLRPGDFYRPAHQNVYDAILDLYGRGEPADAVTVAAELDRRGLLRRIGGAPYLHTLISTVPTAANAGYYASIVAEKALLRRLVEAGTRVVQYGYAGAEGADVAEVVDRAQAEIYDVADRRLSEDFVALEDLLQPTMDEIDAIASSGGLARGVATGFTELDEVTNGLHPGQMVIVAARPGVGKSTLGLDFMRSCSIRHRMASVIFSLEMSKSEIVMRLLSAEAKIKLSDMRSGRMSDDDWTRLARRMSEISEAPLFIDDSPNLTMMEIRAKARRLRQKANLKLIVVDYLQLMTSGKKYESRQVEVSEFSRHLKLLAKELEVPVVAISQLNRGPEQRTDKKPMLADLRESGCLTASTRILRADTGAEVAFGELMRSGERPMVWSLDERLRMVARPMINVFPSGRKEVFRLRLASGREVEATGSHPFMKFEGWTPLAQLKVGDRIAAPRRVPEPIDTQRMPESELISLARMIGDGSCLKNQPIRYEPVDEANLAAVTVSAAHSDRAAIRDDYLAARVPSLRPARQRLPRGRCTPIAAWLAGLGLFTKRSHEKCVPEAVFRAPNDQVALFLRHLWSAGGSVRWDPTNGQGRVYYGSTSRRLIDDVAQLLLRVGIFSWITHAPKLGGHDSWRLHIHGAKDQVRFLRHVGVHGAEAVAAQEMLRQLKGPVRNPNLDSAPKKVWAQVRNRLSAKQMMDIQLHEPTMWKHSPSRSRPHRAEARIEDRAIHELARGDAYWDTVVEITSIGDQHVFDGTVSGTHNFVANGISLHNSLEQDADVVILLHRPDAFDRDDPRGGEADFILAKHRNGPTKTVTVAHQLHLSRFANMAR

Protein RecA = target: T3, Protein RecA (Mycobacterium tuberculosis, UniProt P9WHJ3); assay: Fluorescence Cell-Free Homogeneous Dose Retest to Identify Inhibitors of RecA-Intein Splicing Activity. [Related pubchem assays (depositor defined):AID2097, AID2223, AID489010, AID492950]; assay type: functional
T3 sequence (P9WHJ3 whole entry): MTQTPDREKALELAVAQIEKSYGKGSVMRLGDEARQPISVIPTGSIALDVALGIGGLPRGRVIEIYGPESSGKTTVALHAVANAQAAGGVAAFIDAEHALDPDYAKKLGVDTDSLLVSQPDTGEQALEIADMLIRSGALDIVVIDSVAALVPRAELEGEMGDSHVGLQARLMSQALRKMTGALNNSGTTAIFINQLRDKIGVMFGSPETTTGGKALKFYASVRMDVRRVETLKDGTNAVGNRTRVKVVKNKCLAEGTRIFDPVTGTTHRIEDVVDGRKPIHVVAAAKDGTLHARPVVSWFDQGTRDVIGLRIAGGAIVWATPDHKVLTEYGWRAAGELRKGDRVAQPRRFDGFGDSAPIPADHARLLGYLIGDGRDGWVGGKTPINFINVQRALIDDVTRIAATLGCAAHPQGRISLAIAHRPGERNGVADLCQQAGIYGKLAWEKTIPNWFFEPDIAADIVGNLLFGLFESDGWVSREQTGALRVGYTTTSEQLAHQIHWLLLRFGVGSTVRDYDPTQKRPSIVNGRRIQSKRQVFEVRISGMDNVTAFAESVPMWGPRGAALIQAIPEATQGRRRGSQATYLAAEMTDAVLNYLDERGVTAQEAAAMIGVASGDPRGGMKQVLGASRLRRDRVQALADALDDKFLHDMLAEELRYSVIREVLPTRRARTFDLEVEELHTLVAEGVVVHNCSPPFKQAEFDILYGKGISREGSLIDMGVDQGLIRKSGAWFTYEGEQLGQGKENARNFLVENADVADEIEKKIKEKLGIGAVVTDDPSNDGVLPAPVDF

[7] = A High Throughput Confirmatory Assay used to Identify Novel Compounds that Inhibit Mycobacterium Tuberculosis in the absence of Glycerol.; assay type: functional
[8] = blockers of bursicon-stimulated LGR2 cAMP reporter – cell-based, HEK293, CRE-luciferase reporter, cherry pick, set 2, dose response (AID 743343); assay type: functional;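 further: transfected cells were stimulated with diluted bursicon conditioned medium after compound addition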
[9] = THP-1 cell cytotoxicity, dose response, cytotoxicity control for non-replicating M. tuberculosis project (AID 489025); assay type: functional
[10] = microbe, parasite or virus in culture; assay type: functional; conditions: Mycobacterium tuberculosis
cells = assay type: functional
[11] = blockade of melanocortin 4 receptor signaling – cell-based, plate reader, cherry pick, counter-screen for LGR2 antagonist project, dose response (AID 743444); assay type: functional;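 further: transfected HEK 293 cells stimulated with alpha-MSH peptide; potency of inhibitors of the alpha-MSH evoked signal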
[12] = viability loss in HEK293 cells – cell-based, plate reader, cherry-picked samples, cytotoxicity control, dose response (AID 743446); assay type: functional
[13] = toxicity toward HepG2 liver cells – cell-based, plate reader, cherry-pick, antagonist series, cytotoxicity control, dose response (AID 743416); assay type: functional
[14] = A549 cell cytotoxicity, dose response, cytotoxicity control, plate reader, cherry-pick, antagonist series (AID 743412); assay type: functional, cell-based
BJ [15] = assay: BJ-TERT-LT-ST fibroblast viability loss – cell-based, RAS-independent, luminescence, dose response (AID 1935); assay type: functional; conditions: Homo sapiens;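 further: BJ fibroblasts immortalized with TERT plus LT and ST oncogenes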
BJ [16] = assay: cells; assay type: functional, cell-based; conditions: Homo sapiens
BJ [17] = assay: BJ-TERT fibroblast viability loss – cell-based, RAS-independent, luminescence, dose response (AID 1933); assay type: functional; conditions: Homo sapiens
[18] = DRD fibroblast viability loss – cell-based, non-viral oncogenic, luminescence, dose response (AID 1934); assay type: functional; conditions: Homo sapiens
Cytochrome P450 2C19 = Cytochrome P450 2C19 (Homo sapiens, UniProt P33261); assay: Cytochrome panel assay with activity outcomes. Panel member name: p450-cyp2c19 Compounds with AC50 equal or less than 10 uM are considered active; assay type: functional; conditions: read-out: AC50
Chain of Cytochrome P450 2C19 (P33261 whole entry): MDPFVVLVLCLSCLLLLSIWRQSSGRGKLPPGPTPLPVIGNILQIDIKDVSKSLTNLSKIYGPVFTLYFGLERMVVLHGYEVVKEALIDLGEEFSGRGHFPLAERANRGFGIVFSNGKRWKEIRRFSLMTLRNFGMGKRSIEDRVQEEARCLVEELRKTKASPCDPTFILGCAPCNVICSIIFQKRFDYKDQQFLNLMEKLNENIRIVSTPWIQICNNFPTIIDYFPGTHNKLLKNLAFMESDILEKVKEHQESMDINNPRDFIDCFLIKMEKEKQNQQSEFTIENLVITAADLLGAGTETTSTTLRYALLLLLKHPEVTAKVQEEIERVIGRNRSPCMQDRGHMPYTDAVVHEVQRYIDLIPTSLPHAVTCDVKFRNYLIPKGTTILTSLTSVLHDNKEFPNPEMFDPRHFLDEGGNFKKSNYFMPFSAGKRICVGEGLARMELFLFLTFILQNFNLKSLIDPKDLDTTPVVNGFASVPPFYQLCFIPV

Cytochrome P450 1A2 = target: T4, Cytochrome P450 1A2 (Homo sapiens, UniProt P05177);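 further: PubChem cytochrome P450 panel assay, CYP1A2 panel member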
T4 sequence (P05177 whole entry): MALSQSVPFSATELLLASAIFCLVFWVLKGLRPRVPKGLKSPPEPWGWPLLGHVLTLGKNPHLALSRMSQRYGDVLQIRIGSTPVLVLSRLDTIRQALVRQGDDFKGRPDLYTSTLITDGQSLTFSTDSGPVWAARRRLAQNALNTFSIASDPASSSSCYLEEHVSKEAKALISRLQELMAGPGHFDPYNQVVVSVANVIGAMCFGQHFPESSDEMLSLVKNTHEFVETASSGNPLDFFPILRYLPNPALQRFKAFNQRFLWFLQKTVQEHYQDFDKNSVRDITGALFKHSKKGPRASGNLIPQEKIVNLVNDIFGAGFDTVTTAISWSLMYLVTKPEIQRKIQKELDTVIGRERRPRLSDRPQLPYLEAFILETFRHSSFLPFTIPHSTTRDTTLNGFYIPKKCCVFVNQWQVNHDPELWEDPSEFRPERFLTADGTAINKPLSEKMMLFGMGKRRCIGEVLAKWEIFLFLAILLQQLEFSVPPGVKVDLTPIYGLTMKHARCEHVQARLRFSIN

Cytochrome P450 3A4 = Cytochrome P450 3A4 (Homo sapiens, UniProt P08684);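 further: CYP3A4 tested as one member of a cytochrome P450 panel screen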
Chain of Cytochrome P450 3A4 (P08684 whole entry): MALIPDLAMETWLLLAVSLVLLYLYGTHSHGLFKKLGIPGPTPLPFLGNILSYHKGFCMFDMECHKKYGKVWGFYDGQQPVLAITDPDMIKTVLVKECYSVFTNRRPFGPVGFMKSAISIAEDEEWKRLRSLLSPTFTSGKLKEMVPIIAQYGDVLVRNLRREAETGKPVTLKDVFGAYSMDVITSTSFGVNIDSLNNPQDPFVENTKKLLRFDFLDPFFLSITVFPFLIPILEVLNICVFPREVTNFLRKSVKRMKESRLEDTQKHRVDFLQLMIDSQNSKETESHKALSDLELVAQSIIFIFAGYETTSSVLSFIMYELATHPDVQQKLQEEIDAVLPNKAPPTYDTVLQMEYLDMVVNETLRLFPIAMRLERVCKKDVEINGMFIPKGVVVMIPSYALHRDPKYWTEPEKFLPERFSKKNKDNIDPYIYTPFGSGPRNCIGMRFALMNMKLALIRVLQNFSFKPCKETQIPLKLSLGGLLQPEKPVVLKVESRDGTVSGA

In the case of COC(=O)Nc1ccc(S(=O)(=O)N2c3ccccc3CCC2C)cc1 (stereo unspecified), the IC50 [1] is reported as > 80 µM (inactive) and the AC50 [2] is reported as 0.876 µM (active).

For Cc1cc(C)cc(N2CCN(C(=O)N3CCOCC3)CC2)c1, the EC50 [3] was > 50 µM (not active).

With O=C(CCS(=O)(=O)c1ccc(Br)cc1)N1CCN(Cc2ccccc2)CC1 the EC50 [3] was > 50 µM (not active).

In the case of Cc1ccc(NC(=O)C(=O)NNC(=O)c2cccs2)cc1, the EC50 [4] is reported as > 50 µM (active).

With CCOc1ccc(OCCSc2nc3ccccc3[nH]2)cc1 the EC50 [4] was > 50 µM (active).

For O=C(C1CCN(S(=O)(=O)c2cccnc2)CC1)N1CCN(c2cccc(Cl)c2)CC1, the IC50 [5] was > 64 µM (inactive).

For O=C(CN(Cc1ccco1)C(=O)CNS(=O)(=O)c1ccc(Cl)cc1)NCc1ccc(F)cc1, the EC50 [4] was > 50 µM (active).

In the case of O=C(O)CCSc1nnc(SCC(=O)NCC(F)(F)F)s1, the IC50 [5] is reported as > 64 µM (inactive).

With CC1CCCN(C(=O)Cn2c(=O)oc3cc(S(=O)(=O)N4CCCCC4)ccc32)C1 (stereo unspecified) the EC50 [4] was > 50 µM (active).

In the case of Cc1ccc(-c2ccc(C3C(C#N)=C(N)Oc4[nH]nc(C)c43)o2)cc1 (stereo unspecified), the AC50 [6] is reported as > 380 µM (inactive), the EC50 (Protein RecA) is reported as 4.25 µM (active) and the IC50 [7] is reported as > 100 µM (active).

With COC(=O)/C=C/C(=O)N1CCN(c2ccccc2C)CC1 the IC50 [5] was > 64 µM (inactive).

For Cc1ccnc(NC(=O)c2cc3ccccc3o2)c1, the AC50 [8] was 2.27 µM (active), the CC50 [9] was > 40 µM (active) and the CC50 [10] was > 40 µM (active). For the same compound, the IC50 (cells) was 19.3 µM (active), the AC50 [11] was 2.06 µM (active) and the AC50 [12] was 52 µM (active). For the same compound, the IC50 [7] was > 50 µM (active), the AC50 [13] was > 52 µM (inactive) and the AC50 [14] was 30 µM (active).

For CCOc1ccc(S(=O)(=O)NCc2ccccn2)cc1NC(=O)c1ccccc1F, the EC50 (BJ [15]) was 1.79 µM (active), the EC50 (BJ [16]) was 21.4 µM (active) and the EC50 (BJ [17]) was 2.76 µM (active). The IC50 [1] was > 80 µM (inactive) and the EC50 [18] was 12.9 µM (inconclusive).

In the case of COC(=O)c1ccc(CSc2nc(C(F)(F)F)c3c(c2C#N)CCC3)o1, the CC50 [10] is reported as > 40 µM (active) and the IC50 [7] is reported as > 100 µM (active).

For Cc1c(Cl)cccc1N(CC(=O)O)S(C)(=O)=O, the EC50 [3] was > 50 µM (not active).

With Cc1ccc(C)c(NC(=O)C2CC(O)CN2C(=O)OC(C)(C)C)c1 (stereo unspecified) the AC50 (Cytochrome P450 2C19) was 28.2 µM (inconclusive), the AC50 (Cytochrome P450 1A2) was 31.6 µM (inconclusive) and the AC50 (Cytochrome P450 3A4) was 25.1 µM (inconclusive). The EC50 [3] was > 50 µM (not active).

For C=CCN(C(=O)Cn1nnc2ccccc21)C(C(=O)NCCOC)c1ccc(OC)cc1OC (stereo unspecified), the EC50 [3] was > 50 µM (not active).
